From patent US9204640B2, “2-acyloxy-pyrrolin-4-ones” (BAYER INTELLECTUAL PROPERTY GMBH, priority 2011, dated 2015)

Key:
Type in all cases: in vivo
[1] = system: Digitaria sanguinalis; experiment: Herbicidal post-emergence action, DIGSA; settings: Digitaria sanguinalis, post-emergence, 20 g/ha
Experimental: (§1) 2. Herbicidal Post-Emergence Action
(§2) • Seeds of monocotyledonous and dicotyledonous weed and crop plants are placed in sandy loam in wood-fiber pots, covered with soil and cultivated in a greenhouse under good growth conditions. 2 to 3 weeks after sowing, the test plants are treated at the one-leaf stage. The test compounds, formulated as wettable powders (WP), are then, with a water application rate of 600 l/ha (converted), with 0.2% of wetting agent added, sprayed at various dosages onto the green parts of the plants. After the test plants have been kept in the greenhouse under optimum growth conditions for about 3 weeks, the activity of the preparations is rated visually in comparison to untreated controls (herbicidal activity in percent: 100% activity=the plants have died, 0% activity=like control plants). • In addition to the compounds mentioned above, the following compounds show an activity of 90-100% against Alopecurus myosuroides, Avena fatua, Digitaria sanguinalis, Echinocloa crus-galli, Lolium multiflorum, Setaria viridis and Sorghum halapense when applied by the post-emergence method at 320 g/ha: I-a-2, I-a-4, I-a-5, I-a-7, I-a-9, I-a-10, I-a-11, I-a-12, I-a-13, I-a-15. • In addition to the compounds mentioned above, the following compounds show an activity of 90-100% against Alopecurus myosuroides, Avena fatua, Echinocloa crus-galli, Lolium multiflorum and Setaria viridis when applied by the post-emergence method at 80 g/ha: I-a-1, I-b-2.
(§3) • Seeds of monocotyledonous and dicotyledonous weed plants and crop plants are placed in wood-fiber pots in sandy loam and covered with soil. The test compounds, formulated in the form of wettable powders (WP) or emulsion concentrates (EC), are then, as an aqueous suspension with a water application rate of 600-800 l/ha (converted), with 0.1-0.2% of wetting agent added, applied at various dosages to the surface of the covering soil. • After the treatment, the pots are placed in a greenhouse and kept under good growth conditions for the test plants. […] Herbicidal Post-Emergence Action (Post) • Seeds of monocotyledonous and dicotyledonous weed and crop plants are placed in sandy loam in wood-fiber pots, covered with soil and cultivated in a greenhouse under good growth conditions. 2-3 weeks (stages 10-13 according to the BBCH scale) after sowing, the test plants are treated at a height of 5-10 cm. The test compounds, formulated as wettable powders (WP) or emulsion concentrates (EC), are then, with a water application rate of 600-800 l/ha (converted), with 0.1-0.2% of wetting agent added, sprayed at various dosages onto the green parts of the plants.
(§4) AVEFA: Avena fatua LOLMU: Lolium multiflorum SETVI: Setaria viridis CHEAL: Chenopodium album VIOTR: Viola tricolor VERPE: Veronica persica ORYSA: Oryza sativa TRZAS: Triticum aestivum ZEAMX: Zea mays ALOMY: Alopecurus myosuroides DIGSA: Digitaria sanguinalis ECHCG: Echinocloa crus-galli SORHA: Sorghum halepense AVESA: Avena sativa AMARE: Amaranthus retroflexus SINAL: Sinapis alba STEME: Stellaria media

[2] = system: Myzus persicae; experiment: Myzus persicae test (MYZUPE Tau), leaf dipping; settings: Myzus persicae, foliar, 144 h, 6dat
Experimental: Myzus Persicae Test (MYZUPE Tau) To produce a suitable preparation of active compound, 1 part by weight of active compound is mixed with the stated amount of solvent and emulsifier, and the concentrate is diluted with emulsifier-containing water to the desired concentration. Cabbage leaves (Brassica oleracea) which are heavily infested by the green peach aphid (Myzus persicae) are treated by dipping into the active compound preparation of the desired concentration. After the desired period of time, the kill in % is determined. 100% means that all of the aphids have been killed; 0% means that none of the aphids have been killed.

[3] = system: Myzus persicae; experiment: Myzus persicae test; hydroponic treatment (MYZUPE Sys); settings: Myzus persicae, 144 h, 6dat
Experimental: Myzus Persicae Test; Hydroponic Treatment (MYZUPE Sys)
To produce a suitable preparation of active compound, 1 part by weight of active compound is mixed with the stated amounts of solvent and emulsifier, and the concentrate is diluted with water to the desired concentration.
The active compound preparation is mixed with water. The stated concentration refers to the amount of active compound per volume unit of water (mg/l=ppm). The treated water is filled into vessels containing a pea plant (Pisum sativum), and the plant is the infested with the green peach aphid (Myzus persicae).
After the desired period of time, the kill in % is determined 100% means that all of the aphids have been killed; 0% means that none of the aphids have been killed.

[4] = system: Setaria viridis; experiment: Herbicidal pre-emergence action, SETVI; settings: Setaria viridis, pre-emergence, 20 g/ha
Excerpt: 1. Herbicidal Pre-Emergence Action
• Seeds of monocotyledonous and dicotyledonous weed plants and crop plants are placed in wood-fiber pots in sandy loam and covered with soil. The test compounds, formulated in the form of wettable powders (WP), are then, as an aqueous suspension with a water application rate of 600 l/ha (converted), with 0.2% of wetting agent added, applied at various dosages to the surface of the covering soil. • After the treatment, the pots are placed in a greenhouse and kept under good growth conditions for the test plants. The visual assessment of the damage to the test plants is carried out after a trial period of about 3 weeks by comparison with untreated controls (herbicidal activity in percent: 100% activity=the plants have died, 0% activity=like control plants). • In addition to the compounds mentioned above, the following compounds show an activity of 90-100% against Alopecurus myosuroides, Digitaria sanguinalis, Echinocloa crus-galli, Lolium multiflorum, Setaria viridis and Sorghum halapense when applied by the pre-emergence method at 320 g/ha of a.i.: I-a-2, I-a-10, I-a-11, I-a-12.
1. Herbicidal Pre-Emergence Action (Pre)
as §3, §4

[5] = system: Echinocloa crus-galli; experiment: Herbicidal post-emergence action, ECHCG; settings: Echinochloa crus-galli, post-emergence, 20 g/ha
Experimental: as §1, §2, §3, §4

[6] = system: Alopecurus myosuroides; experiment: Herbicidal post-emergence action, ALOMY; settings: Alopecurus myosuroides, post-emergence, 20 g/ha
Experimental: as §1, §2, §3, §4

[7] = system: Spodoptera frugiperda; experiment: Spodoptera frugiperda test (SPODFR spray treatment); settings: application rate 500 g/ha, after 7 days, corn leaf discs
Experimental: Spodoptera Frugiperda Test (SPODFR Spray Treatment) [table] To produce a suitable preparation of active compound, 1 part by weight of active compound is mixed with the stated amount of solvent and emulsifier, and the concentrate is diluted with emulsifier-containing water to the desired concentration. Discs of corn leaves (Zea mays) are sprayed with an active compound preparation of the desired concentration and, after drying, populated with caterpillars of the armyworm (Spodoptera frugiperda). After 7 days, the effect in % is determined. 100% means that all caterpillars have been killed; 0% means that none of the caterpillars have been killed. Spodoptera Frugiperda Test (SPODFR Spray Treatment) To produce a suitable preparation of active compound, 1 part by weight of active compound is mixed with the stated amount of solvent and emulsifier, and the concentrate is diluted with emulsifier-containing water to the desired concentration. Discs of corn leaves (Zea mays) are sprayed with an active compound preparation of the desired concentration and, after drying, populated with caterpillars of the armyworm (Spodoptera frugiperda). After the desired period of time, the activity in % is determined. 100% means that all caterpillars have been killed; 0% means that none of the caterpillars have been killed.

[8] = system: Myzus persicae; experiment: Myzus test (MYZUPE spray treatment); settings: application rate 500 g/ha, after 5 days, Chinese cabbage leaf discs
Experimental: Myzus Test (MYZUPE Spray Treatment) [table] To produce a suitable preparation of active compound, 1 part by weight of active compound is mixed with the stated amount of solvent and emulsifier, and the concentrate is diluted with emulsifier-containing water to the desired concentration. Discs of Chinese cabbage (Brassica pekinensis) infected by all stages of the green peach aphid (Myzus persicae) are sprayed with an active compound preparation of the desired concentration. After 5 days, the effect in % is determined 100% means that all of the aphids have been killed; 0% means that none of the aphids have been killed. Myzus Test (MYZUPE Spray Treatment) To produce a suitable preparation of active compound, 1 part by weight of active compound is mixed with the stated amount of solvent and emulsifier, and the concentrate is diluted with emulsifier-containing water to the desired concentration. Discs of Chinese cabbage (Brassica pekinensis) infected by all stages of the green peach aphid (Myzus persicae) are sprayed with an active compound preparation of the desired concentration. After the desired period of time, the activity in % is determined. 100% means that all of the aphids have been killed; 0% means that none of the aphids have been killed.

[9] = system: Meloidogyne incognita; experiment: Meloidogyne incognita test (MELGIN); settings: 20 ppm, after 14 days, lettuce roots
Experimental: Meloidogyne Incognita Test (MELGIN) [table] To prepare a suitable active compound preparation, 1 part by weight of active compound is mixed with the stated amounts of solvent and the concentrate is diluted with water to the desired concentration. Containers are filled with sand, solution of active compound, Meloidogyne incognita egg/larvae suspension and lettuce seeds. The lettuce seeds germinate and the plants develop. On the roots, galls are formed. After 14 days, the nematicidal effect in % is determined by the formation of galls. 100% means that no galls have been found; 0% means that the number of galls on the treated plants corresponds to the untreated control.

[10] = system: Phaedon cochleariae; experiment: Phaedon test (PHAECO spray treatment); settings: application rate 500 g/ha, after 7 days, Chinese cabbage leaf discs
Experimental: Phaedon Test ([…] Spray Treatment) [table] To produce a suitable preparation of active compound, 1 part by weight of active compound is mixed with the stated amount of solvent and emulsifier, and the concentrate is diluted with emulsifier-containing water to the desired concentration. Discs of Chinese cabbage (Brassica pekinensis) are sprayed with an active compound preparation of the desired concentration and, after drying, populated with larvae of the mustard beetle (Phaedon cochleariae). After 7 days, the effect in % is determined 100% means that all beetle larvae have been killed; 0% means that none of the beetle larvae have been killed. Phaedon Test ([…] Spray Treatment) To produce a suitable preparation of active compound, 1 part by weight of active compound is mixed with the stated amount of solvent and emulsifier, and the concentrate is diluted with emulsifier-containing water to the desired concentration. Discs of Chinese cabbage (Brassica pekinensis) are sprayed with an active compound preparation of the desired concentration and, after drying, populated with larvae of the mustard beetle (Phaedon cochleariae). After the desired period of time, the activity in % is determined. 100% means that all beetle larvae have been killed; 0% means that none of the beetle larvae have been killed.

[11] = system: Nilaparvata lugens; experiment: Nilaparvata lugens test (NILALU hydroponic treatment); settings: 20 ppm, after 7 days
Experimental: Nilaparvata Lugens Test ([…] Hydroponic Treatment) To produce a suitable preparation of active compound, 1 part by weight of active compound is mixed with the stated amount of solvent and emulsifier, and the concentrate is diluted with emulsifier-containing water to the desired concentration. The active compound preparation is pipetted into water. The stated concentration refers to the amount of active compound per volume unit of water (mg/l=ppm), the sample is then infected with the brown planthopper (Nilaparvata lugens). After 7 days, the effect in % is determined 100% means that all of the planthoppers have been killed; 0% means that none of the planthoppers have been killed.

Row | Structure (SMILES) | inhibition at 20 g/ha [1] | inhibition at 20 ppm [2] | inhibition at 20 ppm [3] | inhibition at 20 g/ha [4] | inhibition at 20 g/ha [5] | inhibition at 20 g/ha [6] | effect in % (caterpillars killed) [7] | effect in % (aphids killed) [8] | nematicidal effect in % (formation of galls) [9] | effect in % (beetle larvae killed) [10] | effect in % (planthoppers killed) [11]
1 | CCOC(=O)OC1=C(c2c(C)cc(I)cc2CC)C(=O)NC12CCC(OC)CC2 (stereo not shown) [I-1-c-1 known from WO 06/029799] | 30% | 50% | 60% | 20% | 30% | 30% |  |  |  |  | 
2 | COc1cc(C)cc(C)c1C1=C(OC(=O)C(C)(C)C)NC2(CCC(OC)CC2)C1=O (stereo not shown) [I-a-2] |  |  |  |  |  |  | 100% | 100% | 100% | 100% | 
3 | CCc1cc(C)cc(Br)c1C1=C(OC(=O)C(C)(C)C)NC(C)(C)C1=O [I-a-13] |  |  |  |  |  |  |  | 80% |  | 83% | 100%
